These results are taken from patent US20220168427A1 (Ranok Therapeutics (Hangzhou) Co. Ltd., priority 2019, published 2022).

The target of one data set is HSP90α (Homo sapiens, UniProt P07900). Kind of data set: HSP90α Binding Fluorescent Polarization (FP) Assay. To be noted: competition with FITC-geldanamycin; read-out: HSP90 Binding Potency. As to the method: HSP90α Binding Fluorescent Polarization (FP) Assay
A master mix was prepared with assay buffer, BSA and FITC-geldanamycin. In a 96-well plate, a serial 3-fold dilution of each compound was prepared ranging from 40 μM down until 2.0 nM. Also in a 96-well plate, recombinant HSP90α protein was diluted to 28 μg/ml. Then, in a 384-well plate, 10 μl of master mix and 5 μl of compound dilution were added per well to duplicate wells and mixed by brief shaking. Then 5 μl of diluted HSP90α protein was added per well, mixed by brief shaking, incubated at 25° C. for 30, 60 and 120 min and fluorescence was measured on an EnVision Plate Reader. Background-subtracted mP values were calculated from EnVision raw data and a four-parameter “log[inhibitor] vs. response” curve was fitted using GraphPad Prism 7.0.

A further data set concerns the target T1, BRD4 (BD1+BD2) (Homo sapiens, UniProt O60885).
T1 construct: 1.8 μg/ml recombinant BRD4 (BD1+BD2 domains) protein
To be noted: read-out: BRD4 Binding Potency. As to the method: A master mix was prepared with assay buffer, 1.8 μg/ml recombinant BRD4 (BD1+BD2 domains) protein, and 200-fold dilutions of Tb-labeled donor and dye-labeled acceptor. 40-fold dilutions of acetylated and non-acetylated ligands were prepared in 1×BRD TR-FRET assay buffer. Also, a serial 3-fold dilution of each compound was prepared ranging from 40 μM down until 2.0 nM. In a 384-well plate, 5 μl diluted ligand and 5 μl of compound dilution were added per well to duplicate wells and mixed by brief shaking. Then 10 μl of master mix was added per well, mixed by brief shaking, incubated at 25° C. for 2 hr and fluorescence was measured on an EnVision Plate Reader. The 665 nm/615 nm ratio was calculated from EnVision raw data. Data were normalized using whole-plate averages of “positive” and “negative” readings. A four-parameter “log[inhibitor] vs. response” curve was fitted using GraphPad Prism 7.0.

For another data set, the system named is MV4-11 cells. Kind of data set: MV4-11 Cell Cytotoxicity Assay. The following applies: CCK-8; for IC50 at 72 h: human, MV4-11 cells. It is filed as cell-based, human. From the text: % Inhibition=100−(D−B)/(S−B)*100%.
S: The absorbance of the maximum (cells with DMSO)
B: The absorbance of the minimum (medium with DMSO)

Some results are limits rather than exact numbers.

For the molecule `CCc1cc(-c2nnc(O)n2-c2ccc(CN3CCC(C(=O)N4CCC(CNCC[C@@H]5N=C(c6ccc(Cl)cc6)c6c(sc(C)c6C)-n6c(C)nnc65)C4)CC3)cc2)c(O)cc1O` (stereo partly drawn) [Compound 67, (3-(((2-((6S)-4-(4-chlorophenyl)-2,3,9-trimethyl-6H-thieno[3,2-f][1,2,4]triazolo[4,3-a][1,4]diazepin-6-yl)ethyl)amino)methyl)pyrrolidin-1-yl)(1-(4-(3-(5-ethyl-2,4-dihydroxyphenyl)-5-hydroxy-4H-1,2,4-triazol-4-yl)benzyl)piperidin-4-yl)methanone, trifluoroacetic acid], the IC50 on HSP90α and on BRD4 (BD1+BD2) was 0.1 to 1 µM each time. For the same molecule, the IC50 at 72 h in the data set with MV4-11 cells lay in the range of 0.1 to 1 µM.
For the molecule `Cc1sc2c(c1C)C(c1ccc(Cl)cc1)=N[C@@H](CC(=O)N1CCC(CN3CCN(Cc4ccc(-n5c(C(=O)NCCN6CCCCC6)nnc5-c5ccc(O)cc5O)cc4)CC3)CC1)c1nnc(C)n1-2` [Compound 110, (S)-4-(4-((4-((1-(2-(4-(4-chlorophenyl)-2,3,9-trimethyl-6H-thieno[3,2-f][1,2,4]triazolo[4,3-a][1,4]diazepin-6-yl)acetyl)piperidin-4-yl)methyl)piperazin-1-yl)methyl)phenyl)-5-(2,4-dihydroxyphenyl)-N-(2-(piperidin-1-yl)ethyl)-4H-1,2,4-triazole-3-carboxamide, trifluoroacetic acid], the IC50 at HSP90α is 0.1 to 1 µM; on BRD4 (BD1+BD2), < 0.1 µM. This molecule also displayed an IC50 at 72 h in the data set with MV4-11 cells of 0.1 to 1 µM.
As to `Cc1sc2c(c1C)C(c1ccc(Cl)cc1)=N[C@@H](CC(=O)NCc1ccc(-n3c(S)nnc3-c3cc(C(C)C)c(O)cc3O)cc1)c1nnc(C)n1-2` [Compound 28, (S)-2-(4-(4-chlorophenyl)-2,3,9-trimethyl-6H-thieno[3,2-f][1,2,4]triazolo[4,3-a][1,4]diazepin-6-yl)-N-(4-(3-(2,4-dihydroxy-5-isopropylphenyl)-5-mercapto-4H-1,2,4-triazol-4-yl)benzyl)acetamide], the IC50 at HSP90α and at BRD4 (BD1+BD2) was 0.1 to 1 µM each time. In the data set on MV4-11 cells, this molecule yielded an IC50 at 72 h of 0.1 to 1 µM.
With `Cc1sc2c(c1C)C(c1ccc(Cl)cc1)=N[C@@H](CC(=O)N1CCC(CN3CCN(Cc4ccc(-n5c(C(=O)NC(C)C)nnc5-c5cc(C(C)C)c(O)cc5O)cc4)CC3)CC1)c1nnc(C)n1-2` [Compound 108, (S)-4-(4-((4-((1-(2-(4-(4-chlorophenyl)-2,3,9-trimethyl-6H-thieno[3,2-f][1,2,4]triazolo[4,3-a][1,4]diazepin-6-yl)acetyl)piperidin-4-yl)methyl)piperazin-1-yl)methyl)phenyl)-5-(2,4-dihydroxy-5-isopropylphenyl)-N-isopropyl-4H-1,2,4-triazole-3-carboxamide, trifluoroacetic acid], the IC50 on HSP90α and at BRD4 (BD1+BD2) was > 1 µM throughout. In addition, the IC50 at 72 h in the data set on MV4-11 cells is 0.1 to 1 µM.
With “(S)—N-(4′-((1-((S)-(2-(4-(4-chlorophenyl)-2,3,9-trimethyl-6H-thieno[3,2-f][1,2,4]triazolo[4,3-a][1,4]diazepin-6-yl)acetyl)glycyl)piperidin-4-yl)oxy)-2′-(2-(dimethylamino)ethoxy)-[1,1′-biphenyl]-4-yl)-3′,6-dimethoxy-[1,1′-biphenyl]-3-carboxamide [Compound 137]”, the results for the IC50 at HSP90α, at BRD4 (BD1+BD2) and in the data set on MV4-11 cells (72 hr) were > 1 µM, 0.1 to 1 µM and 0.1 to 1 µM, respectively.
In the case of `Cc1sc2c(c1C)C(c1ccc(Cl)cc1)=N[C@@H](CC(=O)NCCOc1cccc(CN(C)Cc3ccc(-n4c(O)nnc4-c4cc(C(C)C)c(O)cc4O)cc3)c1)c1nnc(C)n1-2` [Compound 50, 2-((6S)-4-(4-chlorophenyl)-2,3,9-trimethyl-6H-thieno[3,2-f][1,2,4]triazolo[4,3-a][1,4]diazepin-6-yl)-N-(2-(3-(((4-(3-(2,4-dihydroxy-5-isopropylphenyl)-5-hydroxy-4H-1,2,4-triazol-4-yl)benzyl)(methyl)amino)methyl)phenoxy)ethyl)acetamide, trifluoroacetic acid, trifluoroacetic acid, trifluoroacetic acid, trifluoroacetic …], the results for the IC50 on HSP90α and on BRD4 (BD1+BD2) were 0.1 to 1 µM and > 1 µM, respectively. Besides, in the data set on MV4-11 cells, the IC50 at 72 h was < 0.1 µM.
Taken in the same sequence, the figures for `COc1cccc(-c2cc(C(=O)Nc3ccc(-c4ccc(OC5CCN(C)CC5)cc4OCCN(C)CC[C@@H]4N=C(c5ccc(Cl)cc5)c5c(sc(C)c5C)-n5c(C)nnc54)cc3)ccc2OC)c1` [Compound 135] were > 1 µM, 0.1 to 1 µM and 0.1 to 1 µM.
On the same counts, the results for `Cc1sc2c(c1C)C(c1ccc(Cl)cc1)=N[C@@H](CC(=O)N(C)CCOc1ccc(CN(C)Cc3ccc(-n4c(C(=O)NCC(F)(F)F)nnc4-c4cc(C(C)C)c(O)cc4O)cc3)cc1)c1nnc(C)n1-2` [Compound 101, (S)-4-(4-(((4-(2-(2-(4-(4-chlorophenyl)-2,3,9-trimethyl-6H-thieno[3,2-f][1,2,4]triazolo[4,3-a][1,4]diazepin-6-yl)-N-methylacetamido)ethoxy)benzyl)(methyl)amino)methyl)phenyl)-5-(2,4-dihydroxy-5-isopropylphenyl)-N-(2,2,2-trifluoroethyl)-4H-1,2,4-triazole-3-carboxamide, formic acid] are > 1 µM, > 1 µM and < 0.1 µM.
Regarding `Cc1sc2c(c1C)C(c1ccc(Cl)cc1)=N[C@@H](CC(=O)NCC(=O)NCCOCCOc1ccc(-n3c(O)nnc3-c3cc(C(C)C)c(O)cc3O)cc1)c1nnc(C)n1-2` [Compound 55, (S)-2-(4-(4-chlorophenyl)-2,3,9-trimethyl-6H-thieno[3,2-f][1,2,4]triazolo[4,3-a][1,4]diazepin-6-yl)-N-(2-((2-(2-(4-(3-(2,4-dihydroxy-5-isopropylphenyl)-5-hydroxy-4H-1,2,4-triazol-4-yl)phenoxy)ethoxy)ethyl)amino)-2-oxoethyl)acetamide], the IC50 at HSP90α and at BRD4 (BD1+BD2) was 0.1 to 1 µM in each case. In the data set on MV4-11 cells, this molecule displayed an IC50 at 72 h of 0.1 to 1 µM.
Regarding `CCc1cc(-c2nnc(O)n2-c2ccc(CN3CCC(C(=O)N4CCC(CNCC[C@@H]5N=C(c6ccc(Cl)cc6)c6c(sc(C)c6C)-n6c(C)nnc65)CC4)CC3)cc2)c(O)cc1O` [Compound 68, (4-(((2-((6S)-4-(4-chlorophenyl)-2,3,9-trimethyl-6H-thieno[3,2-f][1,2,4]triazolo[4,3-a][1,4]diazepin-6-yl)ethyl)amino)methyl)piperidin-1-yl)(1-(4-(3-(5-ethyl-2,4-dihydroxyphenyl)-5-hydroxy-4H-1,2,4-triazol-4-yl)benzyl)piperidin-4-yl)methanone, trifluoroacetic acid], the IC50 at HSP90α and at BRD4 (BD1+BD2) was 0.1 to 1 µM throughout. The IC50 at 72 h in the data set with MV4-11 cells fell in the range of 0.1 to 1 µM.
For the molecule `Cc1sc2c(c1C)C(c1ccc(Cl)cc1)=N[C@@H](CC(=O)N1CCC(CN3CCN(Cc4ccc(-n5c(S)nnc5-c5cc(C(C)C)c(O)cc5O)cc4)CC3)CC1)c1nnc(C)n1-2` [Compound 12, 2-((6S)-4-(4-chlorophenyl)-2,3,9-trimethyl-6H-thieno[3,2-f][1,2,4]triazolo[4,3-a][1,4]diazepin-6-yl)-1-(4-((4-(4-(3-(2,4-dihydroxy-5-isopropylphenyl)-5-mercapto-4H-1,2,4-triazol-4-yl)benzyl)piperazin-1-yl)methyl)piperidin-1-yl)ethanone, trifluoroacetic acid], the IC50 on HSP90α was < 0.1 µM; on BRD4 (BD1+BD2), > 1 µM. Also, the IC50 at 72 h in the data set with MV4-11 cells is < 0.1 µM.
Turning to `Cc1sc2c(c1C)C(c1ccc(Cl)cc1)=N[C@@H](CC(=O)N1CCC(CN3CCN(Cc4ccc(-n5c(C(N)=O)nnc5-c5cc(C(C)C)c(O)cc5O)cc4)CC3)CC1)c1nnc(C)n1-2` [Compound 109, (S)-4-(4-((4-((1-(2-(4-(4-chlorophenyl)-2,3,9-trimethyl-6H-thieno[3,2-f][1,2,4]triazolo[4,3-a][1,4]diazepin-6-yl)acetyl)piperidin-4-yl)methyl)piperazin-1-yl)methyl)phenyl)-5-(2,4-dihydroxy-5-isopropylphenyl)-4H-1,2,4-triazole-3-carboxamide, trifluoroacetic acid], the values for the IC50 on HSP90α and at BRD4 (BD1+BD2) were 0.1 to 1 µM and < 0.1 µM, respectively. Moreover, in the data set with MV4-11 cells, the IC50 at 72 h was < 0.1 µM.
For the molecule `Cc1sc2c(c1C)C(c1ccc(Cl)cc1)=N[C@@H](CC(=O)NCCOCCOc1ccc(-n3c(S)nnc3-c3cc(C(C)C)c(O)cc3O)cc1)c1nnc(C)n1-2` [Compound 33, (S)-2-(4-(4-chlorophenyl)-2,3,9-trimethyl-6H-thieno[3,2-f][1,2,4]triazolo[4,3-a][1,4]diazepin-6-yl)-N-(2-(2-(4-(3-(2,4-dihydroxy-5-isopropylphenyl)-5-mercapto-4H-1,2,4-triazol-4-yl)phenoxy)ethoxy)ethyl)acetamide], the IC50 at HSP90α and on BRD4 (BD1+BD2) was 0.1 to 1 µM each time. This molecule also gave an IC50 at 72 h in the data set on MV4-11 cells of 0.1 to 1 µM.
